According to ChEMBL document CHEMBL1132796, “Multistep solution-phase parallel synthesis of spiperone analogues” (Bioorg Med Chem Lett, 2000):

What was measured:
[1] = biological target: T1, 5-hydroxytryptamine receptor 2A (Homo sapiens, UniProt P28223); assay: Compound was evaluated for its inverse agonist activity against 5-hydroxytryptamine 2A receptor; type: functional
[2] = biological target: T1, 5-hydroxytryptamine receptor 2A; assay: Compound was evaluated for its binding against 5-hydroxytryptamine 2A receptor

T1 sequence (P28223 whole entry): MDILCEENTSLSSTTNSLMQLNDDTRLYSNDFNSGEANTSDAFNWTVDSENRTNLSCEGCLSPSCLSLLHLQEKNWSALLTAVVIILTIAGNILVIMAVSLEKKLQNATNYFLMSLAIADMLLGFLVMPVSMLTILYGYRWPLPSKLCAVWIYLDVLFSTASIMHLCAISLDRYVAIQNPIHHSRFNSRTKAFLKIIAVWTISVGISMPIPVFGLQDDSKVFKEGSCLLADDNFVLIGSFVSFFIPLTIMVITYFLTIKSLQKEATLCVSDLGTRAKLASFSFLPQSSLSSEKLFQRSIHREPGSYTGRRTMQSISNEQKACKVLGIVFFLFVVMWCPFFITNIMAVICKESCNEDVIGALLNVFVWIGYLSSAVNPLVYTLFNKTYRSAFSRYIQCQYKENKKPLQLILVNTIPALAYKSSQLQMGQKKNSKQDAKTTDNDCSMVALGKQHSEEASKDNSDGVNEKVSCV

| SMILES | IC50 [1] [nM] | Ki [2] [nM] |
| --- | --- | --- |
| CC(C)NC(=O)N(C1CCCCCCC1)C1CCN(CCCOc2ccc(F)cc2)CC1 | 79.4 |  |
| CCC(=O)N(C1CCCCCCC1)C1CCN(CCCOc2ccc(F)cc2)CC1 | 12.6 | 20 |
